Experiments:
[1] = system: hypoxia response element regulated reporter gene; assay: Hypoxia response element (enolase promoter) luciferase reporter in cortical neurons; format: cell-based, rat; conditions: 40 μM, positive control, FIG. 5
Experimental: FIG. 5. A cell permeant, peptide inhibitor of the HIF prolyl 4-hydroxylase, but not a mutant control, induces expression of HIF-dependent genes. […] The low molecular weight P4H inhibitor, FG-0041 (40 μM) was used as a positive control. To determine whether the Tat-HIF/ODD/wt peptide stabilizes HIF-1 leading to activation of HIF-1 dependent gene expression, the levels of a luciferase reporter gene that is regulated by a hypoxia response element found in the enolase gene promoter was monitored.

[2] = system: HIF-1 target genes; assay: Expression of HIF-1 target genes in rat cerebral cortex (real time RT-PCR); format: in vivo; conditions: 100 mg/kg i.p., Sprague Dawley rats, FIG. 4
Experimental: HIF-1α protein levels were determined in nuclear extracts using a monoclonal anti-HIF-1α antibody (NOVUS Biologicals). Real time RT-PCR was performed in a ABI-7500 instruments using commercial Taqman gene expression assays (Applied BioSystems). Male Sprague Dawley rats, weighing 275-350 gm, were used in these experiments. For surgical procedures, anesthesia was induced with 5% isofluorane delivered in oxygen and maintained at 1.5% throughout surgery. Core body temperature was maintained at 37° C. by a homeothermic heating blanket. Animals were subjected to MCAo by the intraluminal filament method. The right external carotid artery was ligated, cauterized, and cut, and its branches were coagulated. A 35 mm length of 4-0 nylon monofilament (Ethicon) with a rounded tip was then inserted into the internal carotid artery via the proximal end of the external carotid artery stump. The filament was advanced 20 mm beyond the carotid artery bifurcation with slight resistance was encountered. The tilorone analogues R-10,874-DA, R-11,567-DA, and R-9536-DA were injected 100 mg/kg i.p. 24 h pre-MCAo. Equivalent volume of saline was injected i.p. to control rats. Animals were sacrificed 24 h post-MCAo.

[3] = system: HIF-1; assay: HIF-luciferase reporter (enolase 1 promoter-luciferase) in stably transfected HT22 cells; format: cell-based; conditions: HT22 murine hippocampal cells, FIG. 3
Experimental: HT22 murine hippocampal cells were stably transfected with an enolase 1 promoter-luciferase reporter construct and selected with puromycin. Tilorone analogues R-10,874-DA, R-11,567-DA, and R-9536-DA were tested for their ability to activate a HIF-luciferase reporter. Luciferase activity was measured using a Luciferase Assay System (PROMEGA) according to the manufacture's protocol.

Row | induction of the HIF-dependent reporter gene [1] | Structure (SMILES) | expression of HIF-1 target genes in the rat cerebral cortex [2] | HIF-1 transcriptional activity (HIF-luciferase reporter) [3]
1 | stimulated | O=C(O)c1c[nH]c2c(ccc3cccnc32)c1=O [FG-0041] |  | 
2 |  | CN(C)CCOc1ccc2c(=O)c3ccc(OCCN(C)C)cc3oc2c1.Cl.Cl [R-10,874-DA, 3,6-bis[2-(dimethylamino)ethoxy]-9h-xanthen-9-one dihydrochloride] | induce the expression of HIF-1 target genes | increase HIF-1 transcriptional activity
3 |  | CN(C)CC(=O)c1ccc2oc3ccc(C(=O)CN(C)C)cc3c2c1.Cl.Cl.O [R-11,567-DA, 2,8-bis[dimethylaminoacetyl]dibenzofurin dihydrochloride hydrate] | induce the expression of HIF-1 target genes | increase HIF-1 transcriptional activity

Reference: US9795587B2, “Compounds for enhancing hypoxia inducible factor activity and methods of use” (Cornell Research Foundation, Inc., priority 2005, dated 2017)
